For one assay, the target named is Ephrin type-A receptor 2 (Homo sapiens, UniProt P29317). The assay is described as follows: Binding affinity to recombinant human EPHA2 (D596 to G900 residues) expressed in insect cells incubated for 30 mins by MST assay. Also noted: species or system Insect cell.
The target in assay [1] is Bone marrow stromal antigen 2 (Homo sapiens) (UniProt Q10589). Also: assay method not described here.
Assay [2] deals with F-actin-capping protein subunit alpha-1 (Homo sapiens) (UniProt P52907).
Assay [3] concerns the target Trifunctional purine biosynthetic protein adenosine-3 (Homo sapiens) (UniProt P22102). Also: assay method not described here.
Assay [4] deals with GDP-mannose 4,6 dehydratase (Homo sapiens) (UniProt O60547).
The target of assay [5] is 3-hydroxyacyl-CoA dehydrogenase type-2 (Homo sapiens) (UniProt Q99714). Also: assay method not described here.
Assay [6] has as its target Dolichyl-diphosphooligosaccharide--protein glycosyltransferase subunit MAGT1 (Homo sapiens) (UniProt Q9H0U3). Also: assay method not described here.
The target in assay [7] is DNA replication licensing factor MCM3 (Homo sapiens) (UniProt P25205). Also: assay method not described here.
Assay [8] deals with Dynamin-like GTPase OPA1, mitochondrial (Homo sapiens) (UniProt O60313).
Assay [9] has as its target Reticulon-3 (Homo sapiens) (UniProt O95197). Also: assay method not described here.
Assay [10] addresses Solute carrier family 25 member 3 (Homo sapiens) (UniProt Q00325).
Assay [11] deals with Serine/arginine-rich splicing factor 2 (Homo sapiens) (UniProt Q01130).
Assay [12] deals with Thioredoxin reductase 1, cytoplasmic (Homo sapiens) (UniProt Q16881).
The target of assay [13] is Dolichyl-diphosphooligosaccharide--protein glycosyltransferase 48 kDa subunit (Homo sapiens) (UniProt P39656). Also: assay method not described here.
In assay [14] the target is Peptidyl-prolyl cis-trans isomerase FKBP3 (Homo sapiens) (UniProt Q00688). Also: assay method not described here.
Assay [15] concerns the target Small ribosomal subunit protein RACK1 (Homo sapiens) (UniProt P63244). Also: assay method not described here.
In assay [16] the target is Transmembrane protein 94 (Homo sapiens) (UniProt Q12767). Also: assay method not described here.
Assay [17] addresses Protein CIP2A (Homo sapiens) (UniProt Q8TCG1).
For assay [18], the target named is Pyruvate dehydrogenase protein X component, mitochondrial (Homo sapiens) (UniProt O00330). Also: assay method not described here.
Assay [19] has as its target RNA-binding protein 14 (Homo sapiens) (UniProt Q96PK6). Also: assay method not described here.
Assay [20] addresses Man(5)GlcNAc(2)-PP-dolichol translocation protein RFT1 (Homo sapiens) (UniProt Q96AA3).
The target in assay [21] is Electrogenic aspartate/glutamate antiporter SLC25A13, mitochondrial (Homo sapiens) (UniProt Q9UJS0). Also: assay method not described here.
In assay [22] the target is Ubiquitin-protein ligase E3A (Homo sapiens) (UniProt Q05086). Also: assay method not described here.
Assay [23] addresses ATP-binding cassette sub-family F member 2 (Homo sapiens) (UniProt Q9UG63).
The target of assay [24] is ALK tyrosine kinase receptor (Homo sapiens) (UniProt Q9UM73). Also: assay method not described here.
The target of assay [25] is DnaJ homolog subfamily C member 9 (Homo sapiens) (UniProt Q8WXX5). Also: assay method not described here.
The target in assay [26] is Translation initiation factor eIF2B subunit epsilon (Homo sapiens) (UniProt Q13144). Also: assay method not described here.
Assay [27] addresses Mitotic deacetylase-associated SANT domain protein (Homo sapiens) (UniProt Q6PJG2).
In assay [28] the target is Very-long-chain (3R)-3-hydroxyacyl-CoA dehydratase 2 (Homo sapiens) (UniProt Q6Y1H2). Also: assay method not described here.
Assay [29] deals with Probable helicase with zinc finger domain (Homo sapiens) (UniProt P42694).
The target of assay [30] is Histone H1.3 (Homo sapiens) (UniProt P16402). Also: assay method not described here.
Assay [31] addresses HLA class I histocompatibility antigen, B alpha chain (Homo sapiens) (UniProt P01889).
Assay [32] deals with Inositol 1,4,5-trisphosphate-gated calcium channel ITPR1 (Homo sapiens) (UniProt Q14643).
For assay [33], the target named is Kelch-like protein 6 (Homo sapiens) (UniProt Q8WZ60). Also: assay method not described here.
Assay [34] concerns the target Serine/threonine-protein kinase LMTK2 (Homo sapiens) (UniProt Q8IWU2). Also: assay method not described here.
In assay [35] the target is Unconventional myosin-Ig (Homo sapiens) (UniProt B0I1T2). Also: assay method not described here.
Assay [36] deals with NADH dehydrogenase [ubiquinone] flavoprotein 2, mitochondrial (Homo sapiens) (UniProt P19404).
Assay [37] has as its target Origin recognition complex subunit 3 (Homo sapiens) (UniProt Q9UBD5). Also: assay method not described here.
The target of assay [38] is Peroxisomal biogenesis factor 3 (Homo sapiens) (UniProt P56589). Also: assay method not described here.
Assay [39] addresses Pumilio homolog 2 (Homo sapiens) (UniProt Q8TB72).
The target of assay [40] is Ribosomal protein S6 kinase beta-1 (Homo sapiens) (UniProt P23443). Also: assay method not described here.
In assay [41] the target is Paired amphipathic helix protein Sin3a (Homo sapiens) (UniProt Q96ST3). Also: assay method not described here.
For assay [42], the target named is Sorting nexin-2 (Homo sapiens) (UniProt O60749). Also: assay method not described here.
Assay [43] has as its target Signal recognition particle 19 kDa protein (Homo sapiens) (UniProt P09132). Also: assay method not described here.
Assay [44] deals with Exportin-4 (Homo sapiens) (UniProt Q9C0E2).
For ED50 in this document: assay method not described here.

Serine/threonine-protein kinase LMTK2 (Homo sapiens), sequence (Q8IWU2 whole entry): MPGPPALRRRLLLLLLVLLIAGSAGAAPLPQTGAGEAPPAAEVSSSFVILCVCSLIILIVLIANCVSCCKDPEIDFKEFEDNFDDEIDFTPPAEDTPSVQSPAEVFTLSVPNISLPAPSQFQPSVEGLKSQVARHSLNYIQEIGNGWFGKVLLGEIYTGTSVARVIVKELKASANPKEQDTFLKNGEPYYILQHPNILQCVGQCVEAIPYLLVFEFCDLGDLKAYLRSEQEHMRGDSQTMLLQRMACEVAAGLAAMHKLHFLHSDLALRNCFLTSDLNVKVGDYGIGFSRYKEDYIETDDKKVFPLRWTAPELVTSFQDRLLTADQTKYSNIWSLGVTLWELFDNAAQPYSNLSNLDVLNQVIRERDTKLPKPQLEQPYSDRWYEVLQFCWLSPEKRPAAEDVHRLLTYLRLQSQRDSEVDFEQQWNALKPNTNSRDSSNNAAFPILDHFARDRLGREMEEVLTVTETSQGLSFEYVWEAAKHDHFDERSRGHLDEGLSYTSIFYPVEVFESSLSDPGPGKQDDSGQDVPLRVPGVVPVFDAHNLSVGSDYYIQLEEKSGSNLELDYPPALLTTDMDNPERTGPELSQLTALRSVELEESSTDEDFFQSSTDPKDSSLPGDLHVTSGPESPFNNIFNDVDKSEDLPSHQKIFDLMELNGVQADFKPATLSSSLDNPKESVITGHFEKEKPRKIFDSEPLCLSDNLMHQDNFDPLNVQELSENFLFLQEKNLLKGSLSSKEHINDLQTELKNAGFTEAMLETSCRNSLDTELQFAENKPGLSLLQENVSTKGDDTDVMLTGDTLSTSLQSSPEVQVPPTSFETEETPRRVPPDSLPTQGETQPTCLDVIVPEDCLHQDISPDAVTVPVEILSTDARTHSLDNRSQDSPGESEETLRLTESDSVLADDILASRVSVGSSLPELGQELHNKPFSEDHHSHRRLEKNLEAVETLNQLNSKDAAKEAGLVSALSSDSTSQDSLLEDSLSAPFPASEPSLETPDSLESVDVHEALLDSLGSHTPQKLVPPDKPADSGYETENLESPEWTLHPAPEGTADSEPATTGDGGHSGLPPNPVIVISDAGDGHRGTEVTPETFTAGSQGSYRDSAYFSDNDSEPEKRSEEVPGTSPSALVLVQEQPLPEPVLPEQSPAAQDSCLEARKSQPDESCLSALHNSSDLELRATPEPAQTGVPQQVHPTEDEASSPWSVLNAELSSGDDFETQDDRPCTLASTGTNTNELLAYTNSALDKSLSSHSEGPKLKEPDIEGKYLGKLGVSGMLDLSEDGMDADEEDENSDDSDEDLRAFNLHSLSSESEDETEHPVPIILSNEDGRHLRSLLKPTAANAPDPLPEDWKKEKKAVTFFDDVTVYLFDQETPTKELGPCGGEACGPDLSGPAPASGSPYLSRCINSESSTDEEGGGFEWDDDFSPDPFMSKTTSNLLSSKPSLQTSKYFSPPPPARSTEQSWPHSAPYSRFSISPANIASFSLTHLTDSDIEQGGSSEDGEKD
Translation initiation factor eIF2B subunit epsilon (Homo sapiens), sequence (Q13144 whole entry, the tested form may be a part): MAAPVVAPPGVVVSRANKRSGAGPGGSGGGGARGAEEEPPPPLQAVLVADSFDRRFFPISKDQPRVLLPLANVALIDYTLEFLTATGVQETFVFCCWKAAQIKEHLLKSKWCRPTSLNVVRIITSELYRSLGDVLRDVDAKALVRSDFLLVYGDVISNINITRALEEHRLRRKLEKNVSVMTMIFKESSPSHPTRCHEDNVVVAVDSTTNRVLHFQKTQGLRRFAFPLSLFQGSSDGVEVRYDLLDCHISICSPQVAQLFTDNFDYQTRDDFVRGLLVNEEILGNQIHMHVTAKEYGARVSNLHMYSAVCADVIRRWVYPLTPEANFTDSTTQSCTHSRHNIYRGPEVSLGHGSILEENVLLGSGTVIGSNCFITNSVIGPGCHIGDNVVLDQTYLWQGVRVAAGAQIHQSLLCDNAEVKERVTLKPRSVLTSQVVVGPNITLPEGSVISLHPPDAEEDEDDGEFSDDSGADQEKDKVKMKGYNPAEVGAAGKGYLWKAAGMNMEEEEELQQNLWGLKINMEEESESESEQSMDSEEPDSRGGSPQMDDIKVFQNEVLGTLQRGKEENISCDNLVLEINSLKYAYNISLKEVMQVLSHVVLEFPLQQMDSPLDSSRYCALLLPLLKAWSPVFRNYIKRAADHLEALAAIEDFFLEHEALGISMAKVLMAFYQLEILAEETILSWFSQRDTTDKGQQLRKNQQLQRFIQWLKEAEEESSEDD
DNA replication licensing factor MCM3 (Homo sapiens), sequence (P25205 whole entry): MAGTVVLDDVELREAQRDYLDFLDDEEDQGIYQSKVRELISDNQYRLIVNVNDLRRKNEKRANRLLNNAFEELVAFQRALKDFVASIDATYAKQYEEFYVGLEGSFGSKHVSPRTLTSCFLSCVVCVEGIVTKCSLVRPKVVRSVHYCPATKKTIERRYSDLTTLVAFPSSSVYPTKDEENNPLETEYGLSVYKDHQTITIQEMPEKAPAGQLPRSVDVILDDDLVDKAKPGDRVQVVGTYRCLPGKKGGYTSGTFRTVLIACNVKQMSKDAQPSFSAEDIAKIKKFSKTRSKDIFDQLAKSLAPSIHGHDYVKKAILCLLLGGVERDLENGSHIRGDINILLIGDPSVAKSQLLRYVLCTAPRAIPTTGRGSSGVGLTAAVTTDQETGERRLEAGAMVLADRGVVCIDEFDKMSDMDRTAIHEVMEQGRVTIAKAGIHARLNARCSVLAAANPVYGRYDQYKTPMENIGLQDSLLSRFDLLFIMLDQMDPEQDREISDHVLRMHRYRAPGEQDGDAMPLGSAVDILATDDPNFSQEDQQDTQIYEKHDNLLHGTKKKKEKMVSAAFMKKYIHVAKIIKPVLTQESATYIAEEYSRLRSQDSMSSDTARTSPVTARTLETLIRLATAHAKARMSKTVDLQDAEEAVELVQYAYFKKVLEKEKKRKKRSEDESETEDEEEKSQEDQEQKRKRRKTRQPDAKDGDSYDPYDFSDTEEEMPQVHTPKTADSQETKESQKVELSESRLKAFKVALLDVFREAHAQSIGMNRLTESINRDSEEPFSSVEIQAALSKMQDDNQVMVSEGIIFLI
Dynamin-like GTPase OPA1, mitochondrial (Homo sapiens), sequence (O60313 whole entry): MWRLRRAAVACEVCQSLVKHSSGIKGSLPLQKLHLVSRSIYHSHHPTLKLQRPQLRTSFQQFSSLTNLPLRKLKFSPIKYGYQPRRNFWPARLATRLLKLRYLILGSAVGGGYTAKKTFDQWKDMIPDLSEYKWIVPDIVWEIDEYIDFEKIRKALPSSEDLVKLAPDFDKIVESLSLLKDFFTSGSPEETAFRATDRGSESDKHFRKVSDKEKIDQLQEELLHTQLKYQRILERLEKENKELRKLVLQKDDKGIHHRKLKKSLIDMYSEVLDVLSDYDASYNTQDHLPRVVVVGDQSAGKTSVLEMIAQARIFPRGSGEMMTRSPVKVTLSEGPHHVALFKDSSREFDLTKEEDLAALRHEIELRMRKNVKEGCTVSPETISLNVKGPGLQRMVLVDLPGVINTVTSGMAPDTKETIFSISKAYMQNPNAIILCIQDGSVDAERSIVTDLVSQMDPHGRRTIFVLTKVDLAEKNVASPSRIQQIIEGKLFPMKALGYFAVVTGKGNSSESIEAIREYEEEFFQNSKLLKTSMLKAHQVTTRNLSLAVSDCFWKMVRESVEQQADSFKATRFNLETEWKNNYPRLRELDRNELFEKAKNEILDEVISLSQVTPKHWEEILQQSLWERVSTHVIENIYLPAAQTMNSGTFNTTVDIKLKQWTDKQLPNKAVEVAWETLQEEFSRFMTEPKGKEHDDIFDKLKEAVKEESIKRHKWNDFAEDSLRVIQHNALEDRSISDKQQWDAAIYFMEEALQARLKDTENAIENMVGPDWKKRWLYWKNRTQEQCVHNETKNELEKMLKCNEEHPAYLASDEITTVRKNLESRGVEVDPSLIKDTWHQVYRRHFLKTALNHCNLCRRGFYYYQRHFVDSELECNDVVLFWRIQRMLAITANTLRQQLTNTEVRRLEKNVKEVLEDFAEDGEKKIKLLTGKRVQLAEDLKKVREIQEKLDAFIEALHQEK
Origin recognition complex subunit 3 (Homo sapiens), sequence (Q9UBD5 whole entry, one chain of several): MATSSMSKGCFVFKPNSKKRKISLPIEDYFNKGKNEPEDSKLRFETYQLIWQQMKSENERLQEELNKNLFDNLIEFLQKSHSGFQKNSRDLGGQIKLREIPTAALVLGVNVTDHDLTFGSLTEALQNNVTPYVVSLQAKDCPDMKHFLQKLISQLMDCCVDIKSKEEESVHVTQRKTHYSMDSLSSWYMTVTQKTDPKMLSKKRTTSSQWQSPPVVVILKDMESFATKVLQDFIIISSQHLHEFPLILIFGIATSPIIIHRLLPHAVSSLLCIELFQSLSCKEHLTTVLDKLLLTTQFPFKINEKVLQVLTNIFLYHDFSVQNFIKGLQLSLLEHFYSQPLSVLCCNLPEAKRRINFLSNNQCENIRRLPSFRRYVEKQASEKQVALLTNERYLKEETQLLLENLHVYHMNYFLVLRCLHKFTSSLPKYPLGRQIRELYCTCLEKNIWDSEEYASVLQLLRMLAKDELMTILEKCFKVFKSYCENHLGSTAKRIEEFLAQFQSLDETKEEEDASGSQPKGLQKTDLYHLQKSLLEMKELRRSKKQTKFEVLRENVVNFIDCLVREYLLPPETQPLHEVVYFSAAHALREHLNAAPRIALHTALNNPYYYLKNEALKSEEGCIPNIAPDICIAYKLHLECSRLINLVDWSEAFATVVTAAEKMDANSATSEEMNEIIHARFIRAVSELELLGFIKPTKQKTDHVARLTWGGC
DnaJ homolog subfamily C member 9 (Homo sapiens), sequence (Q8WXX5 whole entry): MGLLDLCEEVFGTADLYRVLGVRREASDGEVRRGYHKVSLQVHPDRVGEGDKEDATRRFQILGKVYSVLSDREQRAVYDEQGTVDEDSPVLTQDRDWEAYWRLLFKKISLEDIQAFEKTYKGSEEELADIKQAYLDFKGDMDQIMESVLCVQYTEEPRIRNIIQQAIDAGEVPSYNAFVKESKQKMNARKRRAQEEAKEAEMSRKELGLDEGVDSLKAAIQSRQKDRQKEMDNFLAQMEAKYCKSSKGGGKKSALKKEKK

One may read the Kd as the constant that tells how readily two partners part at equilibrium. Regarding `Cc1ccc(C(=O)Nc2cccc(C(F)(F)F)c2)cc1Nc1nc(-c2cccnc2)nc2nn(C)cc12`, the Kd on Ephrin type-A receptor 2 came to 0.073 µM. The ED50 was 1250 µM in assay [1]; 1.49 µM in [2]; 0.136 µM in assay [3]; 6770 µM in [4]; 0.0508 µM in assay [5]; 0.686 µM in assay [6]. Also, the ED50 came out at 0.0289 µM in [7]; 0.0729 µM in assay [8]; 0.0206 µM in [9]; 8.08 µM in assay [10]; 0.00931 µM in [11]; 0.19 µM in assay [12].

Turning to `Cc1ccc(C(=O)Nc2cccc(C(F)(F)F)c2)cc1Nc1nc(-c2cccnc2)nc2c1cnn2C`, the ED50 in assay [13] amounted to 0.169 µM; in assay [14] it was 12 µM; in [15] it was 2.87 µM; in [16], 0.0776 µM; in assay [17], 12.6 µM; in assay [18], 0.0482 µM. For the same compound, the ED50 came out at 12.4 µM in [19]; 1.13 µM in assay [20]; 1.18 µM in assay [21]; 6.96 µM in assay [22]; 5.47 µM in [23]; 0.00143 µM in assay [24]. Besides, the ED50 in assay [25] came to 8.8 µM; in assay [26], 5.15 µM; in assay [27] it was 12.8 µM; in assay [28] it was 23.7 µM; in [29], 0.00939 µM; in assay [30], 10.4 µM. In addition, the ED50 in [31] worked out at 0.00982 µM; in [32], 3.43 µM; in assay [33] it was 0.0567 µM; in assay [34] it was 2.39 µM; in [35], 0.00217 µM; in [36], 0.571 µM. The ED50 in assay [37] was 22.9 µM; in assay [38] it was 0.0115 µM; in assay [39], 0.526 µM; in assay [40], 17.6 µM; in [41], 47.7 µM; in assay [42] it was 0.000171 µM. In addition, the ED50 in [43] came to 10.1 µM; in assay [44] it was 0.00594 µM.
